These results are taken from US20080262017A1, “Sugar-Free Storage-Stable Antihistaminic Syrups” (priority 2006, published 2008).

The conditions of series [1]: cited from earlier work.
Series [2] can be described thus: Desloratadine stability (assay, regression analysis). The series is classed as physicochemical. To be noted: Example 1 formulation, regression analysis of data through 18 months. On the procedure:
Data obtained through 18 months at 25° C./60% RH and 30° C./65% RH were evaluated by regression analysis in order to determine a suitable shelf life (see FIGS. 2A and 2B).

For series [3] the following is noted: Example 1 formulation; throughout the 18 month stability interval. On the procedure: (§1) Three batches of the exemplary formulation detailed in Example 1 were manufactured (referred to herein as Batches A, B, and C) and packaged in two different sizes of amber glass bottles (120 mL and 15 mL).
A short description of another series: Sodium benzoate assay. The series is classed as physicochemical. The following applies: Example 1 formulation; throughout the 18 month stability interval. The procedure:
as §1

Where two headings read alike, the source gives them in different places.

`Clc1ccc2c(c1)CCc1cccnc1C2=C1CCNCC1` [Desloratadine, 8-chloro-6,11-dihydro-11-(4-piperidinylidene)-5H-benzo[5,6]cyclohepta[1,2-b]pyridine]: the results for the solubility result in series [1] (in ethanol), in series [1] (in propylene glycol) and in series [1] (in water) were “very soluble”, “very soluble” and “slightly soluble”, respectively. The “predicted desloratadine assay value over a 24 month shelf life” value is listed as 100.9% in series [2] (stored at 25° C./60% RH) and 98.9% in series [2] (stored at 30° C./65% RH).
Regarding `O=C([O-])CN(CCN(CC(=O)[O-])CC(=O)O)CC(=O)O.[Na+].[Na+]` [EDTA, Edetate Disodium], the EDTA assay trend entry in series [3] is on record as “no degradation trend”.
Turning to `O=C([O-])c1ccccc1.[Na+]` [sodium benzoate], in the series “Sodium benzoate assay”, the “sodium benzoate assay trend” value is on record as “no degradation trend”.
